Assay [1] deals with PC-3M. Nature of the assay: Antiproliferative activity against human PC-3M cells assessed as inhibition of cell proliferation at 1 nM measured after 9 days by Crystal violet staining based colony formation assay. It counts as functional. The conditions noted are these: time 9.0 day.
In assay [2] the test system is PC-3M. Nature of the assay: Induction of apoptosis in human PC-3M cells assessed as necrotic cells at 1 nM measured after 48 hrs by Annexin V/PI staining based flow cytometry method (reference value: 0.25%). It counts as functional.
For assay [3], the system named is PC-3M. In words: Cytotoxicity in human PC-3M cells assessed as inhibition of cell proliferation measured by CCK-8 assay. It counts as functional, cell-based. (Tetrazolium dyes change colour on reduction, which living cells bring about.)
Assay [4] has as its system PC-3M. In words: Induction of apoptosis in human PC-3M cells assessed as viable cells at 10 nM measured after 48 hrs by Annexin V/PI staining based flow cytometry method (reference value: 95.6%). It counts as functional. As to conditions: read-out: Activity. In general terms: In flow cytometry, cells or beads pass a laser one at a time.
A further assay relates to HepG2. In words: Cytotoxicity in human HepG2 cells assessed as inhibition of cell proliferation measured by CCK-8 assay. It counts as functional, cell-based.
Assay [5] has as its system PC-3M. Nature of the assay: Induction of apoptosis in human PC-3M cells assessed as late apoptotic cells at 1 nM measured after 48 hrs by Annexin V/PI staining based flow cytometry method (reference value: 2.88%). The class given is functional.
Assay [6] deals with PC-3M. In words: Induction of apoptosis in human PC-3M cells assessed as early apoptotic cells at 10 nM measured after 48 hrs by Annexin V/PI staining based flow cytometry method (reference value: 1.25%). It counts as functional.
For assay [7], the system named is PC-3M. In words: Induction of apoptosis in human PC-3M cells assessed as necrotic cells at 5 nM measured after 48 hrs by Annexin V/PI staining based flow cytometry method (reference value: 0.25%). It counts as functional.
Assay [8] has as its system PC-3M. Nature of the assay: Induction of apoptosis in human PC-3M cells assessed as early apoptotic cells at 5 nM measured after 48 hrs by Annexin V/PI staining based flow cytometry method (reference value: 1.25%). It counts as functional.
Assay [9] concerns PC-3M. Nature of the assay: Induction of apoptosis in human PC-3M cells assessed as necrotic cells at 10 nM measured after 48 hrs by Annexin V/PI staining based flow cytometry method (reference value: 0.25%). It counts as functional.
Assay [10] deals with PC-3M. In words: Induction of apoptosis in human PC-3M cells assessed as late apoptotic cells at 5 nM measured after 48 hrs by Annexin V/PI staining based flow cytometry method (reference value: 2.88%). It counts as functional.
A further assay has as its system A549. Nature of the assay: Cytotoxicity in human A549 cells assessed as inhibition of cell proliferation measured by CCK-8 assay. The class given is functional, cell-based.
The subject of a further assay is HMEC. In words: Cytotoxicity in human HMEC cells assessed as inhibition of cell proliferation measured by CCK-8 assay. It counts as functional, cell-based.
Another assay concerns MCF7. In words: Cytotoxicity in human MCF7 cells assessed as inhibition of cell proliferation measured by CCK-8 assay. The class given is functional, cell-based.
Assay [11] relates to PC-3M. Nature of the assay: Induction of apoptosis in human PC-3M cells assessed as late apoptotic cells at 10 nM measured after 48 hrs by Annexin V/PI staining based flow cytometry method (reference value: 2.88%). It counts as functional.
Assay [12] deals with PC-3M. In words: Induction of apoptosis in human PC-3M cells assessed as viable cells at 1 nM measured after 48 hrs by Annexin V/PI staining based flow cytometry method (reference value: 95.6%). It counts as functional. As to conditions: read-out: Activity.
The test system of assay [13] is PC-3M. In words: Induction of apoptosis in human PC-3M cells assessed as viable cells at 5 nM measured after 48 hrs by Annexin V/PI staining based flow cytometry method (reference value: 95.6%). It counts as functional. As to conditions: read-out: Activity.
For assay [14], the system named is PC-3M. In words: Induction of apoptosis in human PC-3M cells assessed as early apoptotic cells at 1 nM measured after 48 hrs by Annexin V/PI staining based flow cytometry method (reference value: 1.25%). It counts as functional.

pIC50: −log10 of the molar value. Activity calls are given as the source filed them. No cut-off for these calls is given here. Some results are limits rather than exact numbers.

For the molecule `COc1cc([C@@H]2c3cc4c(cc3[C@H](O)[C@H]3COC(=O)[C@H]23)OCO4)cc(OC)c1OC` [PODOFILOX], the outcome in the assay with PC-3M [1] was inactive. Further, the Activity in the assay with PC-3M [2] is on record as 0.083%; with PC-3M [5], 3.78%; with PC-3M [6], 3.31%; with PC-3M [7], 0.17%; in the assay with PC-3M [8] it was 3.17%; in the assay with PC-3M [9], 0.11%. Also, the Activity came to 9.11% with PC-3M [10], 20.9% in the assay on PC-3M [11] and 1.71% in the assay with PC-3M [14]. The pIC50 with PC-3M [3] was 6.63; in the assay on HepG2, less than 3.70; in the assay on A549, 8.27; with HMEC it was 5.87; with MCF7, less than 3.70. Besides, the viability at 0.01 µM with PC-3M [4] turned out to be 75.7%. For the same molecule, in the assay on PC-3M [12], the viability at 0.001 µM was found to be 94.4%. In the assay with PC-3M [13], the viability at 0.005 µM is 87.6%.

Regarding `COc1cc([C@@H]2c3cc4c(cc3[C@H](OC(=O)c3ccncc3)[C@H]3COC(=O)[C@H]23)OCO4)cc(OC)c1OC` [4-O-PODOPHYLLOTOXINYL-ISONICOTINATE], the pIC50 in the assay with PC-3M [3] was 7.03; in the assay on HepG2, 3.73; with A549 it was 7.79; in the assay on HMEC it was 5.43; in the assay on MCF7, less than 3.70.

With `C/C=C/C(=O)O[C@H]1c2cc3c(cc2[C@@H](c2cc(OC)c(OC)c(OC)c2)[C@H]2C(=O)OC[C@@H]21)OCO3`, the pIC50 with PC-3M [3] is 7.91; with HepG2, 3.96; in the assay on A549, 7.40; in the assay on HMEC it was 7.10; with MCF7, 4.09.

On to `COc1cc([C@@H]2c3cc4c(cc3[C@H](OC(=O)[C@@H]3CCCN3C(=O)OC(C)(C)C)[C@H]3COC(=O)[C@H]23)OCO4)cc(OC)c1OC`, for which the pIC50 in the assay with PC-3M [3] was 5.76; in the assay with HepG2, 4.29; in the assay with A549, 6.22; in the assay on HMEC, 5.49; in the assay on MCF7, 3.91.

In the case of `CCCCCCCCCCCCCCCCCC(=O)O[C@H]1c2cc3c(cc2[C@@H](c2cc(OC)c(OC)c(OC)c2)[C@H]2C(=O)OC[C@@H]21)OCO3`, the pIC50 in the assay with PC-3M [3] was 5.59; in the assay with HepG2 it was 3.85; in the assay on A549, 5.14; in the assay with HMEC, 5.51; with MCF7, less than 3.70.

Take `COc1cc([C@@H]2c3cc4c(cc3[C@H](OC(=O)c3ccc(Br)s3)[C@H]3COC(=O)[C@H]23)OCO4)cc(OC)c1OC`: the pIC50 is 6.21 with PC-3M [3]; 4.47 in the assay on HepG2; 6.30 with A549; 5.75 with HMEC; less than 3.70 in the assay with MCF7.

As to `COc1cc([C@@H]2c3cc4c(cc3[C@H](OC(=O)[C@H](CCSC)NC(=O)OC(C)(C)C)[C@H]3COC(=O)[C@H]23)OCO4)cc(OC)c1OC`, the pIC50 was 8.29 in the assay on PC-3M [3]; 4.29 with HepG2; 5.99 in the assay on A549; 5.58 in the assay with HMEC; 4.03 with MCF7.

As for `COc1cc([C@@H]2c3cc4c(cc3[C@H](OC(=O)[C@@H](NC(=O)OC(C)(C)C)C(C)C)[C@H]3COC(=O)[C@H]23)OCO4)cc(OC)c1OC`, the pIC50 was 5.60 in the assay with PC-3M [3]; 4.96 in the assay on HepG2; 4.95 in the assay on A549; 5.61 in the assay on HMEC; 4.05 with MCF7.

For `COc1cc([C@@H]2c3cc4c(cc3[C@H](OC(=O)c3sccc3Cl)[C@H]3COC(=O)[C@H]23)OCO4)cc(OC)c1OC`, the pIC50 in the assay on PC-3M [3] is 6.02; in the assay with HepG2, 3.83; in the assay with A549, 6.81; in the assay on HMEC it was 6.94; in the assay with MCF7 it was less than 3.70.

Take `CCCCCCCCCCCCCCCC(=O)O[C@H]1c2cc3c(cc2[C@@H](c2cc(OC)c(OC)c(OC)c2)[C@H]2C(=O)OC[C@@H]21)OCO3`: the pIC50 is 5.64 with PC-3M [3]; 3.93 with HepG2; 5.34 in the assay on A549; 5.27 in the assay on HMEC; less than 3.70 in the assay with MCF7.

For `COc1cc([C@@H]2c3cc4c(cc3[C@H](OC(=O)CN(C)C(=O)OC(C)(C)C)[C@H]3COC(=O)[C@H]23)OCO4)cc(OC)c1OC`, the pIC50 was 7.88 in the assay on PC-3M [3], 7.37 with A549 and 4.56 in the assay with HMEC.

In the case of `COc1cc([C@@H]2c3cc4c(cc3[C@H](OC(=O)c3cccs3)[C@H]3COC(=O)[C@H]23)OCO4)cc(OC)c1OC`, the pIC50 was 6.11 with PC-3M [3]; 4.57 in the assay on HepG2; 7.16 in the assay on A549; 6.17 with HMEC; 4.58 in the assay with MCF7.

Take `COc1cc([C@@H]2c3cc4c(cc3[C@H](OC(=O)[C@H](CC(C)C)NC(=O)OC(C)(C)C)[C@H]3COC(=O)[C@H]23)OCO4)cc(OC)c1OC`: the negative logarithm of the IC50 (pIC50) in the assay on PC-3M [3] was 8.05; with HepG2, 4.22; with A549 it was 5.19; in the assay with HMEC, 5.63; in the assay with MCF7, 3.85.

`CCCCCCCCCCCCCC(=O)O[C@H]1c2cc3c(cc2[C@@H](c2cc(OC)c(OC)c(OC)c2)[C@H]2C(=O)OC[C@@H]21)OCO3`: the pIC50 in the assay with PC-3M [3] was 5.76; in the assay on HepG2 it was 4.05; in the assay on A549 it was 5.97; with HMEC it was 5.56; in the assay on MCF7 it was less than 3.70.

With `COc1cc([C@@H]2c3cc4c(cc3[C@H](OC(=O)[C@H](Cc3ccccc3)NC(=O)OC(C)(C)C)[C@H]3COC(=O)[C@H]23)OCO4)cc(OC)c1OC`, the pIC50 was 7.70 in the assay on PC-3M [3]; less than 3.70 with HepG2; 7.63 in the assay on A549; 5.61 in the assay with HMEC; 4.14 in the assay with MCF7.

With `CC[C@H](C)[C@H](NC(=O)OC(C)(C)C)C(=O)O[C@H]1c2cc3c(cc2[C@@H](c2cc(OC)c(OC)c(OC)c2)[C@H]2C(=O)OC[C@@H]21)OCO3`, the pIC50 was 5.97 in the assay with PC-3M [3]; 6.06 with HepG2; 5.10 in the assay with A549; 5.35 in the assay with HMEC; 4.16 in the assay on MCF7.

With `COc1cc([C@@H]2c3cc4c(cc3[C@H](OC(=O)[C@H](Cc3c[nH]c5ccccc35)NC(=O)OC(C)(C)C)[C@H]3COC(=O)[C@H]23)OCO4)cc(OC)c1OC`, the pIC50 in the assay on PC-3M [3] was 8.22; with HepG2, less than 3.70; with A549 it was 6.50; with HMEC it was 5.75; with MCF7, less than 3.70.

With `CCCCCCCCCCCC(=O)O[C@H]1c2cc3c(cc2[C@@H](c2cc(OC)c(OC)c(OC)c2)[C@H]2C(=O)OC[C@@H]21)OCO3`, the pIC50 is 5.90 in the assay on PC-3M [3]; 4.27 with HepG2; 6.27 in the assay with A549; 6.03 with HMEC; less than 3.70 with MCF7.

Consider `C/C=C/C=C/C(=O)O[C@H]1c2cc3c(cc2[C@@H](c2cc(OC)c(OC)c(OC)c2)[C@H]2C(=O)OC[C@@H]21)OCO3`, for which the pIC50 was 5.96 with PC-3M [3]; 5.63 in the assay with HepG2; 6.84 in the assay with A549; 6.37 in the assay with HMEC; 3.89 in the assay on MCF7.

For the molecule `COc1cc([C@@H]2c3cc4c(cc3[C@H](OC(=O)[C@H](C)NC(=O)OC(C)(C)C)[C@H]3COC(=O)[C@H]23)OCO4)cc(OC)c1OC`, the pIC50 in the assay with PC-3M [3] is 5.93; with HepG2 it was 4.07; in the assay with A549 it was 7.55; with HMEC, 5.07; in the assay with MCF7, 4.39.

The pIC50 is the IC50 on a negative log10 scale, so that one unit is a factor of ten.

These data come from ChEMBL document CHEMBL4811295, “The ester derivatives obtained by C-ring modification of podophyllotoxin induce apoptosis and inhibited proliferation in PC-3M cells via down-regulation of PI3K/Akt signaling pathway” (Bioorg Med Chem Lett, 2021).
